The text below walks through data of publication PMC7717570, “Deciphering the enzymatic target of a new family of antischistosomal agents bearing a quinazoline scaffold using complementary computational tools” (Journal of Enzyme Inhibition and Medicinal Chemistry, 2020).

Data set [1] in a line: Microsomal stability, mouse liver microsomes (S9), Phase-I (CYP450-NADPH). Format: in vitro ADME. The conditions noted are these: CYP450-NADPH, 5 µM. On the procedure:
(§1) Mouse or human liver microsomes (S9), reduced nicotinamide adenine dinucleotide phosphate (NADPH) generating system solutions and uridine glucuronosyltransferase (UGT) reaction mix (BD Biosciences) were kept at −80 °C. The test compounds and reference compound diclofenac were formulated in DMSO at […]. The assay was carried out based on the BD Biosciences Guidelines for Use (TF000017 Rev1.0) with minor adaptations. The metabolic stability of the compounds was studied through the CYP450 superfamily (Phase-I metabolism) by fortification with NADPH and through UGT enzymes (Phase-II metabolism) by fortification with uridine diphosphate glucuronic acid (UDPGA). For CYP450 and other NADPH dependent enzymes, the compounds were incubated at 5 µM together with 0.5 mg/mL S9 in potassium phosphate buffer in a reaction started by the addition of 1 mM NADP. At defined time points, 20 µL was withdrawn from the reaction mixture and 80 µL cold acetonitrile (ACN) was added to inactivate the enzymes and precipitate the protein. The mixture was vortexed for 30 s and centrifuged at 4 °C for 5 min to collect the supernatant. For UGT enzymes, the compounds were incubated at 5 µM together with 0.5 mg/mL S9 in a reaction started by the addition of 2 mM UDPGA cofactor. The loss of parent compound was determined using liquid chromatography (UPLC) (Waters Aquity^TM) coupled with tandem quadrupole mass spectrometry (MS^2) (Waters Xevo^TM), equipped with an electrospray ionisation (ESI) interface and operated in multiple reaction monitoring (MRM) mode.
A general note: Microsomes from liver hold many membrane-bound enzymes, among them those of drug oxidation.

Data set [2] can be described thus: Microsomal stability, mouse liver microsomes (S9), Phase-II (UGT enzymes). The data set is classed as in vitro ADME. The note with it: UGT enzymes, 5 µM. Here is the method:
as §1

Data set [3] in a line: Microsomal stability, human liver microsomes (S9), Phase-I (CYP450-NADPH). Format: in vitro ADME. The note with it: CYP450-NADPH, 5 µM. Here is the method: as §1
Data set [4] is described as follows: Microsomal stability, human liver microsomes (S9), Phase-II (UGT enzymes). Format: in vitro ADME. The conditions noted are these: UGT enzymes, 5 µM. On the procedure: as §1
Data set [5] has as its system Schistosoma mansoni mature worms. The data set can be described thus: In vitro S. mansoni worm killing. The note with it: Schistosoma mansoni, 120 h, day 5, initial test (Table 2), read-out: Worm killing (% of total). On the procedure:
The percentage reduction of worm or egg burden in each treated group was calculated. […] Results are expressed as mean ± SEM. A two-tailed, unpaired Student’s t-test was used to detect the significance of difference between the means of different groups. […] Stock solutions of 5 mM PZQ and the quinazoline derivatives 2–13 were prepared in DMSO. Concentrations of 100 µM, 50 µM, 25 µM, 10 µM and 5 µM were freshly prepared on the day of experiment in RPMI-1640 medium. All compounds were initially tested at 100 and 50 µM; those showing worm killing were further tested at 25, 10 and 5 µM. Worms were obtained from SBSC of TBRI. Six to eight worms were placed in 12-well tissue culture plates and fresh RPMI-1640 medium (supplemented with glutamine, 20% newborn calf serum and streptomycin, penicillin, and gentamicin), containing the indicated concentration of the test compound was added[20]^,[21]. Worms were incubated overnight in a CO2 incubator at 37 °C. On the 2nd day, worms were examined by microscopy, washed three times with normal saline, fresh medium was added and the incubation was continued. On the 3rd day, worm motility was observed and on the 4th day, medium was changed again. On day 5 (end of the observation period), worms were microscopically examined for their motility and appearance. Each concentration was tested in duplicate, and the final recording of percent worm mortality was determined as the number of dead worms [contracted and opaque] divided by the total number of worms × 100. Negative controls used medium without additions or medium with 2% DMSO; positive control media containing identical concentrations of PZQ were tested in parallel.

Data set [6] has as its system Schistosoma mansoni worm couples. The data set can be described thus: S. mansoni ovipositing capacity and coupling. The conditions noted are these: initial test (Table 2); for inhibition at 50 µM / inhibition at 100 µM: Schistosoma mansoni, 120 h, read-out: Reduction in number of eggs (%). On the procedure: Stock solutions of 5 mM PZQ and the quinazoline derivatives 2–13 were prepared in DMSO. Concentrations of 100 µM, 50 µM, 25 µM, 10 µM and 5 µM were freshly prepared on the day of experiment in RPMI-1640 medium. All compounds were initially tested at 100 and 50 µM; those showing worm killing were further tested at 25, 10 and 5 µM. 12-well tissue culture plates were used, each well containing 6–8 worms with at least one worm couple. Worms were incubated overnight in a CO2 incubator at 37 °C. Each concentration was tested in duplicate wells. On day 4, eggs were counted and discarded and the medium was changed. On day 5 (end of observation period) newly deposited eggs were counted. The final egg number is the total count of days 4 and 5 for each concentration tested and the final recording of the percentage of egg reduction was determined as [the total number of eggs on days 4 and 5 of control – the total number of eggs on days 4 and 5 of treated]/the total number of eggs on days 4 and 5 of control × 100.

Several values for one entry are separate records, joined by “and”; a condition that tells them apart may be missing. Identical values can stand only once.

For the molecule `O=C(O)Cc1ccccc1Nc1c(Cl)cccc1Cl` [Diclofenac, diclofenac, reference compound], the “% Parent compound remaining upon incubation” value in data set [1] (0 min) was 100%; in data set [1] (15 min), 87% and 61%; in data set [1] (60 min), 48% and 27%; in data set [2] (0 min), 100%; in data set [2] (15 min), 41% and 34%; in data set [2] (30 min), 44% and 32%. The “% Parent compound remaining upon incubation” value in data set [2] (60 min) was 34% and 30%; in data set [3] (0 min), 100%; in data set [3] (15 min), 27%; in data set [3] (30 min), 5%; in data set [3] (60 min), 1%; in data set [4] (0 min), 100%. In addition, the entries for the “% Parent compound remaining upon incubation” value in data set [4] (15 min), in data set [4] (30 min) and in data set [4] (60 min) were 11%, 9% and 9%, respectively.
As for `O=c1c2ccccc2n(Cc2ccc(C(F)(F)F)cc2)c(=O)n1Cc1ccc(F)cc1` [compound 2, 3-(4-Fluorobenzyl)-1-(4-(trifluoromethyl)benzyl)quinazolin-2,4(1H,3H)-dione], in data set [5], the killing at 50 µM came to 0% and the killing at 100 µM is 100%. Further, in data set [6] (50 µM), the Uncoupling entry is given as “No” and the inhibition at 50 µM is 100%. In data set [6] (100 µM), the Uncoupling entry is “Yes” and the inhibition at 100 µM was 100%.
On to `COc1ccc(Cn2c(=O)c3ccccc3n(Cc3ccc(C(F)(F)F)cc3)c2=O)cc1` [compound 3, 1-(4-(Trifluoromethyl)benzyl)3-(4-methoxybenzyl)quinazolin-2,4(1H,3H)-dione], for which, in data set [5], the killing at 50 µM was found to be 0% and the killing at 100 µM amounted to 75%. In data set [6] (50 µM), the Uncoupling result is recorded as “Yes” and the inhibition at 50 µM was 100%. For the same molecule, in data set [6] (100 µM), the Uncoupling entry is “Yes” and the inhibition at 100 µM was 100%.
`O=c1c2cc(Br)ccc2n(Cc2ccc(C(F)(F)F)cc2)c(=O)n1Cc1ccc(F)cc1` [compound 4, 6-Bromo-3-(4-fluorobenzyl)-1-(4-(trifluoromethyl)benzyl)quinazolin-2,4(1H,3H)-dione]: in data set [5], the killing at 50 µM was determined as 13% and the killing at 100 µM is 100%. Besides, in data set [6] (50 µM), the Uncoupling entry is on record as “Yes” and the inhibition at 50 µM turned out to be 100%. Also, in data set [6] (100 µM), the Uncoupling result is listed as “Yes” and the inhibition at 100 µM stood at 100%.
In the case of `COc1ccc(Cn2c(=O)c3cc(Br)ccc3n(Cc3ccc(C(F)(F)F)cc3)c2=O)cc1` [compound 5, 6-Bromo-1-(4-(trifluoromethyl)benzyl)-3-(4-methoxybenzyl)quinazolin-2,4(1H,3H)-dione], in data set [5], the killing at 50 µM is 0% and the killing at 100 µM is 100%. For the same molecule, in data set [6] (50 µM), the Uncoupling result is recorded as “No” and the inhibition at 50 µM was 31%. Besides, in data set [6] (100 µM), the Uncoupling entry is recorded as “Yes” and the inhibition at 100 µM worked out at 100%.
`O=c1c2ccc(Br)cc2n(Cc2ccc(C(F)(F)F)cc2)c(=O)n1Cc1ccc(F)cc1` [compound 6, 7-Bromo-3-(4-fluorobenzyl)-1-(4-(trifluoromethyl)benzyl)quinazolin-2,4(1H,3H)-dione]: in data set [5], the killing at 50 µM is 0% and the killing at 100 µM stood at 88%. Also, in data set [6] (50 µM), the Uncoupling result is recorded as “Yes” and the inhibition at 50 µM came to 100%. In data set [6] (100 µM), the Uncoupling result was “Yes” and the inhibition at 100 µM was found to be 100%.
For `COc1ccc(Cn2c(=O)c3ccc(Br)cc3n(Cc3ccc(C(F)(F)F)cc3)c2=O)cc1` [compound 7, 7-Bromo-1-(4-(trifluoromethyl)benzyl)-3-(4-methoxybenzyl)quinazolin-2,4(1H,3H)-dione], in data set [5], the killing at 50 µM amounted to 0% and the killing at 100 µM stood at 0%. In data set [6] (50 µM), the Uncoupling result was “No” and the inhibition at 50 µM came out at 35%. Besides, in data set [6] (100 µM), the Uncoupling result is reported as “No” and the inhibition at 100 µM came out at 50%.
For the molecule `O=c1c2cc(Cl)ccc2n(Cc2ccc(C(F)(F)F)cc2)c(=O)n1Cc1ccc(F)cc1` [compound 8, 6-Chloro-3-(4-fluorobenzyl)-1-(4-(trifluoromethyl)benzyl)quinazolin-2,4(1H,3H)-dione], in data set [5], the killing at 50 µM is 0% and the killing at 100 µM is 100%. For the same molecule, in data set [6] (50 µM), the Uncoupling result is reported as “Yes” and the inhibition at 50 µM was 100%. Further, in data set [6] (100 µM), the Uncoupling result was “Yes” and the inhibition at 100 µM worked out at 100%.
For the molecule `COc1ccc(Cn2c(=O)c3cc(OC)c(OC)cc3n(Cc3ccc(C(F)(F)F)cc3)c2=O)cc1` [compound 11, 1-(4-(Trifluoromethyl)benzyl)-6,7-dimethoxy-3-(4-methoxybenzyl)quinazolin-2,4(1H,3H)-dione], in data set [5], the killing at 50 µM was 0% and the killing at 100 µM is 86%. Also, in data set [6] (50 µM), the Uncoupling entry is on record as “Yes” and the inhibition at 50 µM is 100%. In data set [6] (100 µM), the Uncoupling entry is listed as “Yes” and the inhibition at 100 µM turned out to be 100%.
As to `Cc1cc(Br)c2c(c1)c(=O)n(Cc1ccc(F)cc1)c(=O)n2Cc1ccc(C(F)(F)F)cc1` [compound 12, 8-Bromo-3-(4-fluorobenzyl)-1-(4-(trifluoromethyl)benzyl)-6-methylquinazolin-2,4(1H,3H)-dione], in data set [5], the killing at 50 µM was determined as 0% and the killing at 100 µM came out at 0%. Also, in data set [6] (50 µM), the Uncoupling entry is on record as “No” and the inhibition at 50 µM was 50%. Further, in data set [6] (100 µM), the Uncoupling entry is on record as “Yes” and the inhibition at 100 µM amounted to 100%.
Regarding `COc1ccc(Cn2c(=O)c3cc(C)cc(Br)c3n(Cc3ccc(C(F)(F)F)cc3)c2=O)cc1` [compound 13, 8-Bromo-1-(4-(trifluoromethyl)benzyl)-3-(4-methoxybenzyl)-6-methylquinazolin-2,4(1H,3H)-dione], in data set [5], the killing at 50 µM is 0% and the killing at 100 µM came out at 33%. For the same molecule, in data set [6] (50 µM), the Uncoupling result was “Yes” and the inhibition at 50 µM is 100%. Besides, in data set [6] (100 µM), the Uncoupling entry is on record as “Yes” and the inhibition at 100 µM came to 100%.
